From patent publication US20230416257A1, “TOLL-LIKE RECEPTOR AGONIST” (priority 2020, published 2023)

Tested on: antigen-specific T cells in the draining lymph nodes (LN) and spleen
Experiment: A/Vic murine vaccine model: cytokine secretion by antigen-stimulated T cells
Assay type: in vivo
Conditions: immunized mice, 5 days after tertiary immunization (day 33); comparison of UM-2014 and UM-1007; FIG. 4
Description: The adjuvanticity of liposomal formulations of UM-2014 (1 and 10 μg doses) was evaluated in an A/Vic murine vaccine model. Mice were intramuscularly immunized at day 0, 14, and 28, with blood collection at day 14 and day 28 (14dp1 and 14dp2, respectively). A tertiary immunization at day 28 was administered to assess cytokine production of antigen-specific T cells in the draining lymph nodes (LN) and spleen 5 days later (day 33).

CCCCCCCCCCCCCCCC(=O)OC[C@H](COCCOCCOCCOP(=O)(O)OCCN1CCC(Cn2c(O)nc3c(N)nc(O[C@@H](C)CCC)nc32)CC1)OC(=O)CCCCCCCCCCCCCCC [UM-1007]
cytokine secretion by antigen-stimulated T cells from draining LNs and spleen: very similar
